Assays:
Details in all cases: binder
[1] = target: MST4 (Homo sapiens, UniProt Q9P289)
[2] = target: PIM1 (Homo sapiens, UniProt P11309)
[3] = target: JNK3 (Homo sapiens, UniProt P53779)
[4] = target: T1, MYT1 (Homo sapiens, UniProt Q99640)
T1 sequence (Q99640 1-499): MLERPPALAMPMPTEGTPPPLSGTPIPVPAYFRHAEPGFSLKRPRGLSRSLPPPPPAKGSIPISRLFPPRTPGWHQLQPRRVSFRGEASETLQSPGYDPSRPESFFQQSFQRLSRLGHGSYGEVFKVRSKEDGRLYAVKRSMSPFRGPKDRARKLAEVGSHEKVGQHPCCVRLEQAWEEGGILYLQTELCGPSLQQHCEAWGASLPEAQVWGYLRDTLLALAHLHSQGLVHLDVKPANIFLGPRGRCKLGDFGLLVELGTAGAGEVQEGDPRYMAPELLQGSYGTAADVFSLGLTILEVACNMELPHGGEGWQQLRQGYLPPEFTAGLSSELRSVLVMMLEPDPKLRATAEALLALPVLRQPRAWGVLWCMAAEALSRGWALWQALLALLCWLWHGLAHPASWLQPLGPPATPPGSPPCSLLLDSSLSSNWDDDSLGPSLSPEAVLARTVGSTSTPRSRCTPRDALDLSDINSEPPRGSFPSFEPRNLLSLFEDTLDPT

[5] = target: T2, DCAMKL1 (Homo sapiens, UniProt O15075)
T2 sequence (O15075 1-740): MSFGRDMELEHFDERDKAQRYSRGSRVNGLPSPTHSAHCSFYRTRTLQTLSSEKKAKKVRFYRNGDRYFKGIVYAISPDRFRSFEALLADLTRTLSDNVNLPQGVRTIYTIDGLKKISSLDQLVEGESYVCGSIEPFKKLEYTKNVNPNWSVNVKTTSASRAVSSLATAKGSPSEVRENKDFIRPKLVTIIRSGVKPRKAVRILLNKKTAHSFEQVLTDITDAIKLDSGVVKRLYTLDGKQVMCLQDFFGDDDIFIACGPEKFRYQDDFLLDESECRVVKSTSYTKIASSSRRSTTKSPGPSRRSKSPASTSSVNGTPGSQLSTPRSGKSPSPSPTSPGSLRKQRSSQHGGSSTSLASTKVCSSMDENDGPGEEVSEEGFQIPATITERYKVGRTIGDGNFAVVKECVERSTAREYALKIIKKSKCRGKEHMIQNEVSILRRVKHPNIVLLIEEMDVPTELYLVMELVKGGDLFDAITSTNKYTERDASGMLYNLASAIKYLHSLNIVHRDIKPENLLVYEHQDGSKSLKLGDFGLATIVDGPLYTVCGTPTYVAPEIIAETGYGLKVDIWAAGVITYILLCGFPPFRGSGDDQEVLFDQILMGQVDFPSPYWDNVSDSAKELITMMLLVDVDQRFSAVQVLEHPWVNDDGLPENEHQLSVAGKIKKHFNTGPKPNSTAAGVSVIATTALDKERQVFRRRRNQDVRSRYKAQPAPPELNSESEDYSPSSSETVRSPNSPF

[6] = target: T3, Erk7 (Homo sapiens, UniProt Q8TD08)
T3 sequence (Q8TD08 1-544): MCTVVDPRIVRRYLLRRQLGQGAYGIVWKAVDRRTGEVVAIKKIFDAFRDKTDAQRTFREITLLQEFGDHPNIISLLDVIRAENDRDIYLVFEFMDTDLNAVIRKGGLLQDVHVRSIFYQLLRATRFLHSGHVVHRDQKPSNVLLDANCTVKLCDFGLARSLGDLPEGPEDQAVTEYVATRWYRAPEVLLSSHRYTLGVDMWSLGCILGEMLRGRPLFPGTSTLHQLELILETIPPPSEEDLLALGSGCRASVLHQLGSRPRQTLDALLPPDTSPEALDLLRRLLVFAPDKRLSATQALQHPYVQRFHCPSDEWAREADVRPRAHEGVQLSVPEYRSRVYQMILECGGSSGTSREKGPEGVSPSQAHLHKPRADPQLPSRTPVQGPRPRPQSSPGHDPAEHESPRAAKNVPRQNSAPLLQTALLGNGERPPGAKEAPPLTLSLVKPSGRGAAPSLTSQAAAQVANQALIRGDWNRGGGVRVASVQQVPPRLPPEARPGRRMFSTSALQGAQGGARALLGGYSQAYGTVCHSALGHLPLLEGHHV

[7] = target: CaMKK2 (Homo sapiens, UniProt Q96RR4)
Chain of CaMKK2 (Q96RR4 whole entry): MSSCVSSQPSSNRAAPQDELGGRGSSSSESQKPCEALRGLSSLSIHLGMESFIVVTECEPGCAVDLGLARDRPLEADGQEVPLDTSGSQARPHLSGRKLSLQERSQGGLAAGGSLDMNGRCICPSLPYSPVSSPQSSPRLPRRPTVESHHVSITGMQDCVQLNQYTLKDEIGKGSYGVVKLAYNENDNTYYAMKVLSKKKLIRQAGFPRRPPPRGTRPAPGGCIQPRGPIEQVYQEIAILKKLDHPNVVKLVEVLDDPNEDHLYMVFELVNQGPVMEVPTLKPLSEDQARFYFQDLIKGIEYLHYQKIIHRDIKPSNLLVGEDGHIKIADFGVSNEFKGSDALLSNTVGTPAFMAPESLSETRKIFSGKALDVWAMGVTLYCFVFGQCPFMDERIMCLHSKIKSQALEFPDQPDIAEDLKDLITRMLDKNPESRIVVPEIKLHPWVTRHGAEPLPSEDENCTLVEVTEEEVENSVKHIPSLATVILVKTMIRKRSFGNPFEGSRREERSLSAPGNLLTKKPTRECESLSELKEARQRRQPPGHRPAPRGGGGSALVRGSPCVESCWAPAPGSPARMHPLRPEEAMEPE

Chain of MST4 (Q9P289 whole entry): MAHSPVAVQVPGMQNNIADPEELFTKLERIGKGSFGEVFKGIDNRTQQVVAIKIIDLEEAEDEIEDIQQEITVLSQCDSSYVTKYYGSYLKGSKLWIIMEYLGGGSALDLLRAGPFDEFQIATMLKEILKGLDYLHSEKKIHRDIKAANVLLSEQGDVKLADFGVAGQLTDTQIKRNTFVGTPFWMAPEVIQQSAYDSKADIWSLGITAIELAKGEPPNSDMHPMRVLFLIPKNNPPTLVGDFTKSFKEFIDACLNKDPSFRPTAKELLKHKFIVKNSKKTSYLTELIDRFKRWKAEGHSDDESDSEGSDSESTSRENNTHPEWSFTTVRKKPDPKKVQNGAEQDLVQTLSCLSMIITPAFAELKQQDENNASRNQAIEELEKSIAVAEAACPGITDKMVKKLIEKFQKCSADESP
Chain of PIM1 (P11309 whole entry): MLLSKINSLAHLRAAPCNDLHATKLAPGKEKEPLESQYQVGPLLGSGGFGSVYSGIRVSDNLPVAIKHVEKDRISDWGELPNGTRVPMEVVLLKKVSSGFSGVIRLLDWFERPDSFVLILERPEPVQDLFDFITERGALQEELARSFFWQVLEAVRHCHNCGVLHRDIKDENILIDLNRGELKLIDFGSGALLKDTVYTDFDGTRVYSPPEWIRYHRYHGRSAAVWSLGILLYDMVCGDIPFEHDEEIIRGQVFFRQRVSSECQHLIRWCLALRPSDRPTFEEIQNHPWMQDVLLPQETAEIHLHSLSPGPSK
Chain of JNK3 (P53779 whole entry): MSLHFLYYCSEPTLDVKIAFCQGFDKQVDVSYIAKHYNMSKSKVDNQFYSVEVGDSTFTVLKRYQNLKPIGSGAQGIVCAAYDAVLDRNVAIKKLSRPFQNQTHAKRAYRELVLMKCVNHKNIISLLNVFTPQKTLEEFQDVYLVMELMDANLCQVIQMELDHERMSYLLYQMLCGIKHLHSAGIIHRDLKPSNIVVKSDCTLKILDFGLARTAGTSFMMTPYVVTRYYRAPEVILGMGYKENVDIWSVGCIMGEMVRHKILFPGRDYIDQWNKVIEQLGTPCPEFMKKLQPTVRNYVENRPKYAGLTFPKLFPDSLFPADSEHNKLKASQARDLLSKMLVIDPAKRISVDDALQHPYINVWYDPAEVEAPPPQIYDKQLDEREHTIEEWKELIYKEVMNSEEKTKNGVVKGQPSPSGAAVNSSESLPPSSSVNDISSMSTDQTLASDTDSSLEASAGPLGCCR

SMILES: Cc1cccc(-c2ccc(-c3cc4cnc(Nc5cc(C(F)(F)F)ccc5C)nc4n(CCCCN)c3=O)c(Cl)c2)n1 [compound 28, 8-(4-Aminobutyl)-6-(2-chloro-4-(6-methylpyridin-2-yl)phenyl)-2-((2-methyl-5-(trifluoromethyl)phenyl)amino)pyrido[2,3-d]pyrimidin-7(8H)-one]
- ΔTm 28 [1]: 8.8 °C
- ΔTm 28 [2]: 0.5 °C
- ΔTm 28 [3]: 3.5 °C
- ΔTm 28 [4]: -4.3 °C
- ΔTm 28 [5]: 0.9 °C
- ΔTm 28 [6]: 0.5 °C
- ΔTm 28 [7]: 2.4 °C

SMILES: Cc1cccc(-c2ccc(-c3cc4cnc(Nc5ccc(CCCO)cc5)nc4n(CCCCN)c3=O)c(Cl)c2)n1 [compound 30, 8-(4-Aminobutyl)-6-(2-chloro-4-(6-methylpyridin-2-yl)phenyl)-2-((4-(3-hydroxypropyl)phenyl)amino)pyrido[2,3-d]pyrimidin-7(8H)-one]
- ΔTm 30 [1]: 15.3 °C
- ΔTm 30 [2]: -0.4 °C
- ΔTm 30 [3]: 4.6 °C
- ΔTm 30 [4]: -2.8 °C
- ΔTm 30 [5]: 2.0 °C
- ΔTm 30 [6]: 1.2 °C
- ΔTm 30 [7]: 7.5 °C

SMILES: Cc1cccc(-c2ccc(-c3cc4cnc(Nc5ccc(C)c(O)c5)nc4n(CCCCN)c3=O)c(Cl)c2)n1 [compound 32, 8-(4-Aminobutyl)-6-(2-chloro-4-(6-methylpyridin-2-yl)phenyl)-2-((3-hydroxy-4-methylphenyl)amino)pyrido[2,3-d]pyrimidin-7(8H)-one]
- ΔTm 32 [1]: 15.5 °C
- ΔTm 32 [2]: 1.2 °C
- ΔTm 32 [3]: 4.5 °C
- ΔTm 32 [4]: -2.6 °C
- ΔTm 32 [5]: 1.4 °C
- ΔTm 32 [6]: 1.0 °C
- ΔTm 32 [7]: 6.8 °C

SMILES: Cc1cccc(-c2ccc(-c3cc4cnc(NCCCN5CCCC5=O)nc4n(CCCCN)c3=O)c(Cl)c2)n1 [compound 27, MR30]
- ΔTm MR30 (27) [1]: 7.9 °C
- ΔTm MR30 (27) [2]: -0.5 °C
- ΔTm MR30 (27) [3]: 1.7 °C
- ΔTm MR30 (27) [4]: -2.8 °C
- ΔTm MR30 (27) [5]: -1.8 °C
- ΔTm MR30 (27) [6]: -0.4 °C
- ΔTm MR30 (27) [7]: 0.5 °C

SMILES: Cc1cccc(-c2ccc(-c3cc4cnc(Nc5ccc(O)cc5)nc4n(CCCCN)c3=O)c(Cl)c2)n1 [compound 31, 8-(4-Aminobutyl)-6-(2-chloro-4-(6-methylpyridin-2-yl)phenyl)-2-((4-hydroxyphenyl)amino) pyrido[2,3-d]pyrimidin-7(8H)-one]
- ΔTm 31 [1]: 14.7 °C
- ΔTm 31 [2]: 3.7 °C
- ΔTm 31 [3]: 4.7 °C
- ΔTm 31 [4]: -2.3 °C
- ΔTm 31 [5]: 1.1 °C
- ΔTm 31 [6]: 1.4 °C
- ΔTm 31 [7]: 5.2 °C

SMILES: Cc1cccc(-c2ccc(-c3cc4cnc(NCCCN5CCNCC5)nc4n(CCCCN)c3=O)c(Cl)c2)n1 [compound 29, 8-(4-Aminobutyl)-6-(2-chloro-4-(6-methylpyridin-2-yl)phenyl)-2-((3-(piperazin-1-yl)propyl)amino)pyrido[2,3-d]pyrimidin-7(8H)-one]
- ΔTm 29 [1]: 10.2 °C
- ΔTm 29 [2]: 0.6 °C
- ΔTm 29 [3]: 0.8 °C
- ΔTm 29 [4]: -0.9 °C
- ΔTm 29 [5]: -1.7 °C
- ΔTm 29 [6]: 0.1 °C
- ΔTm 29 [7]: 0.7 °C

Source: paper doi:10.1101/2023.11.24.568596v1 (biorxiv, 2023)
